Reference: patent publication US10239923B2, “Specific amyloid beta binding peptides and the use of same for treating and diagnosing alzheimer's dementia” (Forschungszentrum Juelich GmbH, priority 2015, dated 2019)
Square brackets hold non-standard residues; d marks the D form. Peptide text beside a SMILES is read from it.

Key:
[1] = tested on: PC-12 cells; test: MTT reduction test, Aβ1-42-induced cell toxicity; type: cell-based; conditions: batch containing only Mosd1, 24 hours, 37° C.
Method: The samples were placed in the culture medium of the cells and were incubated over 24 hours with the cells at 37° C. The viability of the cells was then determined on the basis of an MTT test. Here, a metabolic reactant was supplied to the cells, which reactant could be converted by metabolically active cells (living cells). Formazan crystals are the product of this conversion and can be dissolved. The coloration of the medium after solubilization corresponds to the conversion rate of the reactant and therefore the viability of the cells. Untreated cells (medium, white chequered pattern) served as living control, and the proportion of vital cells was defined as 100%. The values of the other batches were normalized to this value.

[2] = target: T1, Aβ1-42 monomers versus Aβ1-42 oligomers and fibrils (biotinylated, D-enantiomeric, immobilized) (Homo sapiens, UniProt P05067); test: Monoclonal phage ELISA; type: binding
T1 construct: biotinylated, D-enantiomeric Aβ1-42 monomers
Excerpt: The specificity of the peptide results from the difference in % of the absorption values for the target molecule or the bait (for example A beta monomer) and the normalized absorption values for the competitors (for example A beta oligomers and fibrils) in the monoclonal phage ELISA.
The absorption values then constitute the affinity of individual phage clones for a particular immobilized A beta species. Here, the specificity is not dependent on the strength of the affinity, but instead only on the difference of the affinities between the species. […] The terms “competitors” and “target molecule” or “bait” are defined as specified below.
A method for normalizing the obtained values should therefore be performed. From all absorption values of the individual phage clone in the monoclonal phage ELISA, the values of the phage antibodies tested for cross-reaction can be used as background. This occurs in accordance with the previously immobilized species. The signal values of the phage antibody from the reaction trays with immobilized Aβ1-42 oligomers for this purpose can be removed from the signal values of the individual phage clone from the reaction trays with immobilized Aβ1-42 oligomers. A similar process is then carried out for Aβ1-42 monomers. In this way, a possible background signal of the phage antibody can initially be calculated from the signals of the individual phage clone. […] Only in this way is an equal interpretation of the results particularly in respect of the assessment of the specificity of the individual phage clone possible (see FIG. 2).
The affinity of individual phage clones with respect to the target molecule and the competitors was examined by means of ELISA. For this purpose, all three species were immobilized in biotinylated form on a polystyrene surface at streptavidin bound thereon. Since, during the panning rounds, oligomers and fibrils were added at the same time as competitors, these two species were immobilized in the monoclonal phage ELISA, likewise mixed. […] The streptavidin-coated microtiter plates were pre-washed as specified by the manufacturer. […] For immobilization, 100 μl were used per reaction tray and were incubated for 15 minutes at room temperature. After having washed the entire plate(s) twice with 150 μl 1×TBS per reaction tray, a blocking step with 150 μl 1×TBS/0.1% (v/v) Tween-20/1% (w/v) BSA was performed for an hour at room temperature. Three washing steps with 150 μl 1×TBS/0.1% (v/v) Tween-20 then followed per reaction tray. The amplified individual phage clones were mixed 1:1 with 1× TBS/1% (w/v) BSA. The antibody 6E10 was diluted 1:10,000 in 1×TBS/0.1% (v/v) Tween-20. […] After washing five times with 150 μl 1×TBS/0.1% (v/v) Tween-20 per reaction tray, 200 μl 1×TBS/0.1% (v/v) Tween-20 were placed in each reaction tray, and the plate(s) incubated for one hour at room temperature. The solutions were removed and replaced as follows: In all reaction trays that had been incubated previously with individual phage clone dilutions or the batch without phages, 100 μl of a phage antibody diluted 1:5,000 in 1×TBS/0.1% (v/v) Tween-20 were now added. The enzyme horseradish peroxidase (HRP) was coupled to this antibody and later served for the conversion of a substrate (TMB). […] At the same time, 100 μl of a second antibody diluted 1:1,000 in 1×TBS/0.1% (v/v) Tween-20 were now added to all reaction trays that had been previously incubated with the dilution of the 6E10 antibody, said second antibody being able to identify and bind to the 6E10 antibody originating from mice. This antibody is also HRP-coupled and thus allows a quantification of the binding of the first antibody to the immobilized target molecules or the plastics surface of the reaction tray. After one hour of incubation at room temperature, the plate(s) was/were washed 10 times with 150 μl 1×TBS/0.1% (v/v) Tween-20 per reaction tray. The signal was detected by adding the substrate 3,3′,5,5′-tetramethylbenzidine (TMB). […]

[3] = target: T2, Aβ1-42 (Homo sapiens, UniProt P05067); test: ThT test, modulation of Aβ1-42 aggregation; type: biochemical; conditions: 10 μM Aβ1-42, equimolar peptide, versus Aβ1-42 alone = 100%
Excerpt: FIG. 3: The average relative fluorescence from seven independently performed ThT experiments with standard deviation is shown. The dye Thioflavin T (ThT) binds to β-pleated sheet structures in the batch and thereupon changes its fluorescence spectrum. […] The time in which the logarithmic rise of the fluorescence signal transitioned into a stationary phase was set to 100%.

[4] = target: T2, Aβ1-42; test: TEM of Aβ1-42 incubated with and without Mosd1; type: biochemical; conditions: 10 μM Aβ1-42 with 10 μM Mosd1, 24 hours, room temperature
Excerpt: The scale bars correspond to 0.25 μm.

T1 sequence (P05067 672-713): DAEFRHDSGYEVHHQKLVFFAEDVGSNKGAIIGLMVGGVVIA
T2 sequence (P05067 672-713 limits assumed): as the sequence (P05067 672-713) above

- Difference in signal strength between Aβ1-42 monomers (100%) and Aβ1-42 oligomers and fibrils ([2]; individual phage clones, species immobilized at 320 nM, absorption at 450 nm normalized with 6E10 control, higher = more monomer-specific): 71.989%
- relative ThT fluorescence (formation of β-pleated sheet structures) [3]: reduce the relative fluorescence
Structure (SMILES): CSCC[C@@H](NC(=O)[C@@H](Cc1c[nH]cn1)NC(=O)[C@@H](Cc1ccc(O)cc1)NC(=O)[C@@H](CO)NC(=O)[C@H](NC(=O)[C@@H](CC(C)C)NC(=O)[C@@H](Cc1ccc(O)cc1)NC(=O)[C@@H](CO)NC(=O)[C@H](N)Cc1ccc(O)cc1)[C@H](C)O)C(=O)N[C@@H](C(=O)N[C@H](Cc1c[nH]c2ccccc12)C(=O)N[C@H](CCCNC(=N)N)C(N)=O)C(C)C [Mosd1] (H-[dY][dS][dY][dL][dT][dS][dY][dH][dM][dV][dW][dR]-NH2)
- viability of PC-12 cells, peptide alone [1]: no influence
- absorption values (signal strength) for monomeric Aβ1-42 ([2]; individual phage clone, absorption at 450 nm): highest absorption values for monomeric Aβ1-42 of all tested clones
- binding preference for monomeric Aβ1-42 over Aβ1-42 oligomers and fibrils or plastics surface ([2]; normalized absorption values at 450 nm): greatest difference in the absorption values for monomeric Aβ1-42 and oligomeric or fibrillar Aβ1-42
- aggregate morphology in TEM [4]: formation of large, high-molecular aggregates
